Tested on: rats subjected to carrageenan insult to the right hind paw
Experiment: Randall-Selitto paw pressure test, carrageenan-induced hyperalgesia in rats
Format: in vivo, rat
Conditions: naloxone 1 mg/kg s.c., with or without Alda-1; carrageenan rats
Method: Rats. Male Wistar rats (170-190 g) were provided by Charles River Laboratories or Butantan Institute Animal Facility and housed in a temperature-controlled (22±1° C.) and light-controlled (12/12 h light/dark cycle) room. All rats were housed in their surrounding for at least 3 days. Groups of 5-6 rats were used.
Drugs Used. 0.1 ml saline (control), carrageenan (200 μg for rats, 100 μg for mice; Marine Colloids), or prostaglandin E2 (100 ng, Sigma) was administered by intraplantar injection into the right hind paw to induce hyperalgesia. These doses were chosen based on previous studies by our laboratory groups (Aley K O, et al., (2000) Chronic hypersensitivity for inflammatory nociceptor sensitization mediated by the epsilon isozyme of protein kinase C. The Journal of neuroscience: the official journal of the Society for Neuroscience 20: 4680-4685; Konno K, et al., (2008) Crotalphine, a novel potent analgesic peptide from the venom of the South American rattlesnake Crotalus durissus terrificus. Peptides 29: 1293-1304).
Alda-1 dose (2 mg/kg/per injection, dissolved in 50% PEG/50% DMSO) was established in preliminary studies and given in multiple doses due to its estimated short half-life. Alda-1 was injected subcutaneously to the dorsal side of the neck 15 minutes before carrageenan or saline, and again at 30 and 150 minutes after carrageenan, prostaglandin E2 or saline injection. One subset of animals received Alda-1 only 30 and 150 minutes after carrageenan injection. Where indicated, naloxone (1 mg/kg per injection) or vehicle (saline) was given 10 minutes prior to each Alda-1 treatment to the dorsal side of the neck.
Nociception Assessment. The experimental performer was blinded to both genotype and/or treatments. Nociceptive response was assessed by the von Frey method for mice and the Randall-Selitto method for rats immediately before and 180 minutes after carrageenan or prostaglandin E2 injection. Both mice and rats were acclimated to the testing equipment one day before baseline testing.
Randall-Selitto method: Nociceptive threshold was determined using the Randall-Selitto paw pressure test (Ugo-Basile), as previously described (Gutierrez V P, et al., (2008) Crotalphine induces potent antinociception in neuropathic pain by acting at peripheral opioid receptors. European journal of pharmacology 594: 84-92). The baseline values varied between 65-75 g of force. Animals with baseline out of this range (about 10%) were excluded prior to initiating the study in order to achieve uniform testing.

With `C=CCN1CC[C@]23c4c5ccc(O)c4O[C@H]2C(=O)CC[C@@]3(O)[C@H]1C5` [Naloxone, reference compound] the “Effect of naloxone on nociceptive threshold” value was “no effect”.

Reference: patent publication US9545393B2, “Methods and compositions for treating pain” (The Board of Trustees of the Leland Stanford Junior …, priority 2012, dated 2017)
